Laboratory results from patent US11903912B2, “Composition for preventing and treating breast cancer including selenopsammaplin A as active ingredients” (Seoul National University R & DB Foundation, priority 2019, dated 2024).

Tests used:
breast cancer metastasis = assay: Breast cancer metastasis to organs in animal model, IVIS; type: in vivo, nude BALB/c mice; conditions: 5 mg/kg, 15 mg/kg
Excerpt: Organs such as the lungs, liver, spleen, and kidneys were extracted from the animal model of Example 8, and the degrees of cancer metastasis in the control and the administered groups were indirectly photographed using IVIS (PerkinElmer) and are illustrated in FIG. 9.

[1] = system: EMT markers in MDA-MB-231 cells; assay: Protein expression of EMT markers, western blot; type: cell-based, human; conditions: MDA-MB-231, western blot, FIGS. 7E and 7F
Experimental: The triple-negative breast cancer cell line MDA-MB-231 was spread at a concentration of 2×10^6 cells/well on a DMEM medium containing 10% FBS in a 6-well plate, cultured at 37° C. for 24 hours under a 5% CO2 condition, and then washed twice with phosphate-buffered saline (PBS). Attached cells were recovered and washed twice with PBS, and then boiling 2× sample loading buffer (250 mM Tris-HCl (pH 6.8), 4% SDS, 10% glycerol, 0.006% bromophenol blue, 2% β-mercaptoethanol, 50 mM sodium fluoride, and 5 mM sodium orthovanadate) was added thereto to disrupt the cells and the cells were left at 100° C. for 10 minutes. After cooling, the cells were stored at […] and […] at 37° C. immediately before use in protein quantification and electrophoresis. 10 μg of proteins were electrophoresed at 100 V for 2 hours using a 12% SDS-polyacrylamide gel (#456-1036, Bio-Rad, Hercules, Calif.). The separated proteins were transferred to a PVDF membrane (ISEQ15150, Millipore, Bedford, Mass.) at 100 V for 1 hour, and a blocking buffer (5% non-fat dry milk in TBS containing 0.1% Tween-20 (TBST)) was injected thereinto to culture the proteins at room temperature for 1 hour. After washing three times with TBST for 5 minutes, the corresponding single antibody was diluted with 5% non-fat dry milk in TBST and allowed to react with the membrane at 4° C. for 18 hours. The membrane [ISEQ 1S150, Millipore, Bedford, Mass.] was washed three times with TBST for 10 minutes, and then horseradish peroxidase (HRP)-conjugated secondary antibodies were diluted with 2.5% non-fat dry milk in TBST at a ratio of 1:2,000 and allowed to react with the membrane at room temperature for 2 hours. After washing three times with TBST for 10 minutes, the reaction product was treated with a chemiluminescent reagent (LabFrontier, Suwon, Korea) to confirm the protein expression levels of E-cadherin, N-cadherin, vimentin, and beta-actin (Fuji Film Corp., Japan) using LAS-4000 (Fuji Film Corp., Japan), and the results thereof are illustrated in FIG. 7E. The proteins were quantified using ImageJ software, which are illustrated in FIG. 7F.

[2] = system: SNU638 human gastric cancer cells; assay: SRB cytotoxicity test, SNU638; type: cell-based; conditions: SRB assay, cultured 3 days
Experimental: (§1) A cytotoxicity test was performed using synthesized selenopsammaplin A and derivatives thereof (Lee S K et al […] Chem Biol Interact 115:215-28).
(§2) The cytotoxicity test was performed on a total of five representative cancer cell lines. The cytotoxicity of each compound was measured using an SRB assay method (human lung cancer cells, A549; human colon cancer cells, HCT116; human breast cancer cells, MDA-MB231; human liver cancer cells, SK-HEP-1; human gastric cancer cells, SNU638).
(§3) Each cell line was sub-cultured once or twice using Roswell Park Memorial Institute (RPMI) medium 1640 (RPMI 1640) or Dulbecco's Modified Eagle's Medium (DMEM) containing 10% fetal bovine serum (FBS) inactivated by heat, 100 units/mL of penicillin, 100 μg/mL of streptomycin, and 250 ng/mL of amphotericin B at 37° C. for 1 week under a 5% CO2 condition. All cells were […] in liquid nitrogen, and then passaged three or more times to be used in the experiment. The effects of compounds on cell growth were measured using a sulforhodamine B (SRB) method (Lee et al (1998) Chemico-Biol Interact 115:215-228).
(§4) Specifically, each human cancer cell line used in the present invention was sub-cultured in an RPMI medium containing 10% FBS, 1% PSF, and the like, and 10 μl of a sample dissolved in 10% DMSO and 190 μl (4-5×10^4 cells/ml) of the cell suspension were added to each well of a 96-well plate and cultured for 3 days. 190 μl of the cell suspension was added to at least 16 wells and cultured for 30 minutes, and used as a zero-day control. The cultured cells were fixed with 10% trichloroacetic acid (TCA) and then stained with an SRB solution, and the staining solution was dissolved with 10 mM Tris-base, and then absorbance at 515 nm was measured. Using the case of culturing in 10% DMSO as a control, cell viability according to each test material treatment was measured using Equation 1 below. Etoposide was used as a positive control. % Viability=(OD(sample)−OD(0-day))/(OD(10% DMSO)−OD(0-day))×100 [Equation 1]
(§5) Assuming that a control not-treated with the sample was set at 100%, the values of sample-treated groups were expressed as percentage with respect to the control, and each test material treatment results were obtained as the mean±SEM of two or three tests. The IC50 value is the concentration of the test material for a 50% survival rate.

MDA-MB-231 cells = assay: Cancer cell migration (scratch) test; type: cell-based, human; conditions: MDA-MB-231, scratch, 50-400 nM, 24 hours
Experimental: The triple-negative breast cancer cell line MDA-MB-231 was spread at a concentration of 2×10^6 cells/well on a DMEM medium containing 10% FBS in a 6-well plate, cultured at 37° C. for 24 hours under a 5% CO2 condition, and then washed once with phosphate-buffered saline (PBS). After scratching using a 200 μl tip, the cells were treated with 50-400 nM compound 2 and 400 nM psammaplin A, and then cultured for 24 hours. After washing once with PBS, the degree of migration of cells was photographed using a microscope, and the results thereof are illustrated in FIG. 5A. The degree of scratch healing compared to a control using ImageJ software is illustrated in FIG. 5B.

[3] = system: A549 human lung cancer cells; assay: SRB cytotoxicity test, A549; type: cell-based; conditions: SRB assay, cultured 3 days
Experimental: as §1, §2, §3, §4, §5

For `O=C(NCC[Se][Se]CCNC(=O)/C(Cc1ccccc1)=N/O)/C(Cc1ccccc1)=N/O` [Compound 2, (2E,2′E)-N,N′-(diselenediylbis(ethane-2,1-diyl))bis(2-(hydroxyimino)-3-phenylpropanamide)], the “degree of metastasis to each organ (lungs, liver, spleen, kidneys)” value (breast cancer metastasis) was “significantly reduced”, the “degree of metastasis to the lungs” value (breast cancer metastasis) was “greatly reduced” and the “protein expression of E-cadherin” value [1] was “increased”. For the same molecule, the “protein expression of N-cadherin” value [1] was “suppressed”, the “protein expression of ZEB1” value [1] was “suppressed” and the “protein expression of vimentin” value [1] was “suppressed”. The IC50 [2] was 50 nM, the “migration of breast cancer cells” value (MDA-MB-231 cells) was “effectively suppressed” and the IC50 [3] was 80 nM.
